# What was measured:
# [1] = tested on: cells of the cell therapy (CAR-T cells); assay: Activation induced cell death of cells of the cell therapy in presence of inhibitor; type: cell-based; conditions: particularly if given at too high of a dosage
# Source text: In some aspects, the provided methods, combinations and uses provide for or achieve improved or more durable responses or efficacy as compared to alternative methods, such as alternative methods involving only the administration of the immunotherapy or cell therapy but not in combination with an inhibitor of a prosurvival BCL2 family protein (e.g. venetoclax). In some embodiments, the methods are advantageous by virtue of administering an inhibitor of a prosurvival BCL2 family protein (e.g. venetoclax) shortly before (e.g. within 7 days) or concurrently with administration of an immunotherapy or a cell therapy (e.g. T cell therapy, such as CAR-T cell), thereby sensitizing the tumor and/or making the tumor less resistant to, or more susceptible to, treatment with the immunotherapy or cell therapy. […] However, delaying administration of the inhibitor of a prosurvival BCL2 family protein (e.g. venetoclax) until a time after AICD is at or has reached it peak or been reduced after having peaked can avoid detrimental effects on the cells of the cell therapy while substantially improving, e.g. synergistically increasing, T cell-mediated killing of the tumor by cells of the cell therapy (e.g. CAR-T cells).
# [2] = tested on: RL cells; assay: RL target cell co-culture with CAR T cells and venetoclax (NLR microscopy); type: cell-based; conditions: with CAR T cells E:T 1:1, 0.1 venetoclax
# Method: Anti-CD19 CAR-expressing T cell compositions, generated as described in Example 1, were cultured with the CD19-expressing lymphoma target cell line RL. Target cells were engineered with a lentiviral reagent to express NucLight Red (NLR) to permit tracking of the cells by microscopy. […] The anti-CD19 CART cells were co-cultured with target RL cells at an E:T ratio of 1:1, and the co-cultures were carried out in the presence of 0.1 μM of the exemplary BCL2 inhibitor venetoclax. For comparison, target cells were incubated only in the presence of the CAR T cells or 0.1 μM of the inhibitor.
# [3] = tested on: CD3+ CAR T cells; assay: Delayed addition of venetoclax to RL / CAR T co-culture, CAR T cell number; type: cell-based; conditions: 6 days
# Method: RL target cells were co-cultured with CD19-targeting CAR T cells, generated substantially as described in Example 1, for 6 days in the absence or presence of the exemplary BCL2 inhibitor venetoclax (0.01 μM, 0.1 μM, or 1.0 μM). Venetoclax was added concurrently with co-culture or 24, 48, or 72 hours after the start of co-culture. As a control, RL target cells were cultured in the presence of venetoclax, but without CAR T cells.
# After 6 days of co-culture, the number of CD3+ CAR T cells and target cells was assessed.
# [4] = tested on: RL target cells; assay: Co-culture of tumor cells and CAR T cells, venetoclax added at initiation or 24, 48 or 72 hours later (Example 9): tumor cell killing; type: cell-based, human
# Method: FIGS. 14A and 14B show the number of CD3+CAR+ T cells and RL target cells, respectively, following a 6-day co-culture. Various concentrations of an exemplary BCL2 inhibitor were provided in the co-culture at its initiation, or 24, 48, or 72 hours after the initiation of co-culture.
# Thus, in some cases, the cytotoic effects of a BCL2 inhibitor, e.g. venetoclax, and a T cell therapy (e.g. CAR T cells) may be synergistic to result in cell death of cells otherwise resistant to treatment with the T cell therapy alone. In some cases, administration of the inhibitor, e.g. venetoclax, may sensitize otherwise resistant cancer cells to CAR T cell-mediated killing when it is administered within or at about 7 days after administration of the cell therapy.
# [5] = tested on: Granta-519; assay: NucLight Red target cell killing by live cell imaging; type: cell-based
# Method: Anti-CD19 CAR-expressing T cell compositions were generated as described in Example 1 and were cultured with a CD19-expressing lymphoma target cell lines, either SUDHL6, WSU-DLCL2, or Granta-519 at an E:T ratio of 2.5:1. The co-cultures were carried out in the presence of 20 nM or 200 nM of the exemplary BCL2 inhibitor, venetoclax. As controls, target tumor cell lines were incubated only in the presence of the inhibitor or the anti-CD19 CAR T cells. Target cells were labeled with NucLight Red (NLR) to permit tracking of target cells by microscopy and target cell killing was monitored by the loss of fluorescent signal over time, substantially as described in Example 1.
# In a further experiment, anti-CD19 CAR-expressing T cell compositions, generated as described above, were cultured with the Granta-519 CD19-expressing lymphoma target cell line. Granta-519 cells were engineered with a lentiviral reagent to express NucLight Red (NLR) to permit tracking of target cells by microscopy. […] The anti-CD19 CAR T cells were provided in the co-cultures at the suboptimal dose, and the co-cultures were carried out in the presence of 0, 0.01, 0.1, or 1 μM of the exemplary BCL2 inhibitor venetoclax. For comparison, target tumor cell lines were incubated only in the presence of 0, 0.01, 0.1, or 1 μM of the inhibitor. Red target cell counts were enumerated by live cell imaging and tracked over time.
# [6] = tested on: anti-CD19 CAR T cells; assay: Caspase 3 expression and expansion of CAR T cells incubated with anti-ID beads and venetoclax; type: cell-based; conditions: 0.01, 0.1, 1 or 10 μM, 48 hours post-stimulation
# Method: Anti-CD19 CAR-expressing T cell compositions from healthy donors were incubated with anti-ID antibody-coated beads at 37° C. in the presence of increasing concentrations of venetoclax (0.01 μM, 0.1 μM, 1 μM, or 10 μM) for 48 hours. As a control, CART cells were incubated under the same conditions, but without venetoclax. Caspase 3 expression, viability, and expansion kinetics of the CAR T cells were subsequently assessed.
# [7] = tested on: human plasma proteins; conditions: cited from earlier work
structure (smiles),measurement,setting,value
CC1(C)CCC(CN2CCN(c3ccc(C(=O)NS(=O)(=O)c4ccc(NCC5CCOCC5)c([N+](=O)[O-])c4)c(Oc4cnc5[nH]ccc5c4)c3)CC2)=C(c2ccc(Cl)cc2)C1 [venetoclax],activation induced cell death (AICD) of cells of the cell therapy,[1],can exacerbate activation induced cell death (AICD)
same,target cell killing,[2],sensitized to the CD19-directed CAR T cell killing
same,number of CD3+ CAR T cells,"[3]; 0.01 μM, all time points",not observed to reduce CD3+ CAR T cell number
same,number of CD3+ CAR T cells,[3]; 0.1 μM or 1.0 μM added concurrently or 24 hours later,reduced
same,number of CD3+ CAR T cells,"[3]; added 48 or 72 hours following co-culture, any concentration",a reduction in CD3+ CAR T cells was not observed
same,antitumor effects of CAR T cells,"[4]; inhibitor administered when activation-induced cell death of CAR T cells has peaked (e.g. 2-7 days after CAR T cells), Example 9",potent antitumor effects
same,sensitization of tumor cells to CAR T cell-mediated killing,[4]; therapeutic dose administered 48 or 72 hours after initiation of co-culture of tumor cells and CAR T cells,able to sensitize the tumor cells to CAR T cell-mediated killing
same,CD19-directed CAR T cell killing,"[5]; co-culture with anti-CD19 CAR T cells E:T 2.5:1, 20 or 200 nM venetoclax",enhanced
same,target cell number,"[5]; venetoclax alone, 0.01 μM",did not substantially impact target cell number
same,tumor cell killing,"[5]; venetoclax alone, 20 nM or 200 nM",did not substantially impact tumor cell killing
same,target cell number,"[5]; venetoclax alone, 0.1 μM and 1.0 μM",modest effect on target cell number
same,target cell number,"[5]; with anti-CD19 CAR T cells E:T 1:1, 0.01 μM venetoclax, compared to 0.01 μM inhibitor only",demonstrated a decrease in the number of target cells
same,target cell number / CAR T cell killing,"[5]; with anti-CD19 CAR T cells E:T 1:1, 0.1 μM and 1.0 μM venetoclax",even greater CD19-directed CAR T cell killing
same,percentage of CAR+ T cells expressing caspase 3,[6],larger percentages of CAR+ T cells expressing caspase 3
same,plasma protein binding,[7],can bind human plasma proteins
